Experimental data as given in PubChem BioAssay AID844 (SRMLSC, 2007).
The source made the active and inactive calls. No rule for the calls is given here.

Tested on: MRP1 cells, doxorubicin viability shift, 10 uM compound
Experiment: viability protection against doxorubicin, MRP-1 line – cell-based, doxorubicin EC50 shift, dose response (AID 844)
Conditions: for EC50: measured here: doxorubicin EC50 with compound

| SMILES | fold increase in Dox EC50 | EC50 |
| --- | --- | --- |
| Cc1ccc(C(=O)NC(C)c2ccc(F)cc2)cc1 (stereo not drawn) | 0.68 (inactive) | 3.68 µM |
| COc1cccc(Nc2nc3ccccc3nc2-n2nc(C)cc2C)c1 | 0.35 (inactive) | 1.89 µM |
| COc1ccc(C(=O)Nc2ccc(Cl)c(S(=O)(=O)Nc3ccccc3OC)c2)cc1 | 0.57 (inactive) | 3.05 µM |
| Cc1ccc(C(c2sc3ncnn3c2O)N2CC(C)CC(C)C2)cc1 (stereo not drawn) | 0.72 (inactive) | 3.89 µM |
| CCc1ccc(C2CC(c3ccccc3C)n3nc(N)nc3N2)cc1 (stereo not drawn) | 0.57 (inactive) | 3.07 µM |
| O=c1c(-c2nnc(SCc3ccc(Cl)cc3)o2)cccn1Cc1ccccc1 | 0.63 (inactive) | 3.4 µM |
| CCOC(=O)N1CCN(c2nc(-c3cccc(OC)c3)cc(C(F)(F)F)n2)CC1 | 1.11 (inactive) | 6.02 µM |
| O=C(CN1C(=O)/C(=C/c2ccccc2)SC1=S)Nc1ncc(Cc2ccccc2)s1 | 1.49 (inactive) | 8.03 µM |
| CCc1nnc(NC(=O)CCC(=O)N2CCN(Cc3ccc(Cl)cc3)CC2)s1 | 0.76 (inactive) | 4.09 µM |
| COc1ccccc1-c1cc(C(=O)NC(C)c2ccccc2)no1 (stereo not drawn) | 1.04 (inactive) | 5.64 µM |
| COc1ccc(-c2c(C#N)c(N)nc3sc(C(=O)c4ccccc4)c(N)c23)cc1 | 0.34 (inactive) | 1.86 µM |
| O=C(O)CSC1c2ccccc2C(=O)N1Cc1ccccc1 (stereo not drawn) | 0.82 (inactive) | 4.42 µM |
| CCc1nccn1C(=O)c1cnn2c(C(F)F)cc(-c3ccc(C)cc3)nc12 | 0.1 (inactive) | 0.523 µM |
| O=C1c2ccsc2SCCN1Cc1c(Cl)cccc1Cl | 1.19 (inactive) | 6.43 µM |
| Fc1ccc(N2CCN(c3ncnc4c3nnn4Cc3ccccc3Cl)CC2)cc1 | 0.86 (inactive) | 4.67 µM |
| CCCCC1S/C(=N/N=C/c2ccc(OC)cc2)N(Cc2ccc(OC)cc2)C1=O (stereo not drawn) | 1.18 (inactive) | 6.34 µM |
| CCC1SC2=NC(C)=C(C(=O)OC)C(c3cccs3)N2C1=O (stereo not drawn) | 1.1 (inactive) | 5.94 µM |
| Cc1oc(C(=O)Nc2ccc(C(=O)O)cc2)cc1COc1ccccc1 | 0.42 (inactive) | 2.24 µM |
| N#CC(C#N)=NNc1ccc(S(=O)(=O)N2CCCC2)cc1 | 1.09 (inactive) | 5.88 µM |
| O=C(NC(=S)Nc1nc(-c2ccccc2)cs1)c1cncc(Br)c1 | 0.99 (inactive) | 5.35 µM |
| Cc1ccc(-c2nnn(CC(=O)N(c3ccccc3F)C(C(=O)NCC3CCCO3)c3c[nH]c4ccccc34)n2)cc1 (stereo not drawn) | 0.5 (inactive) | 2.67 µM |
| c1ccc2c(-c3nc(C4CCCCC4)no3)cc(-c3ccncc3)nc2c1 | 0.62 (inactive) | 3.32 µM |
| COc1ccc(-n2c(C)nc(=O)c(-c3ccccc3)c2C)cc1 | 0.83 (inactive) | 4.47 µM |
| Cc1cc(C)c(N=Cc2c(O)n(-c3nccs3)c(=O)c3ccccc23)c(C)c1 | 0.29 (inactive) | 1.54 µM |
| Cc1ccc(CCNC(=O)C2CCCN2S(=O)(=O)c2ccc3c(c2)CCC(=O)N3)cc1 (stereo not drawn) | 0.64 (inactive) | 3.46 µM |

| SMILES | fold increase in Dox EC50 | EC50 |
| --- | --- | --- |
| Cc1noc(/C=C/N(C)C)c1S(=O)(=O)N1CCCC(C(=O)NCc2ccc(F)cc2)C1 (stereo not drawn) | 1.15 (inactive) | 6.2 µM |
| Cc1cc(C)nc(NS(=O)(=O)c2ccc(NC(=O)c3ccc4c(c3)OCO4)cc2)n1 | 0.94 (inactive) | 5.05 µM |
| c1ccc(OCCSc2nc3ccccc3[nH]2)cc1 | 1.03 (inactive) | 5.54 µM |
| Cc1cccc(NC(=O)Cn2c(=O)n(Cc3ccco3)c(=N)c3c4c(sc32)COC(C)(C)C4)c1 | 0.81 (inactive) | 4.37 µM |
| O=C1CC(c2nc3ccccc3[nH]2)CN1c1cccc(C(F)(F)F)c1 (stereo not drawn) | 1.24 (inactive) | 6.7 µM |
| CC(C)(C)c1ccc(-c2nc(-c3ccncc3)no2)cc1 | 0.77 (inactive) | 4.15 µM |
| CN(C)C(=O)Oc1ccc(OC(=O)c2ccccc2)cc1 | 1.17 (inactive) | 6.32 µM |
| Cc1nc(NC(=S)NC(=O)c2cccs2)sc1C(=O)N(C)C | 1.04 (inactive) | 5.59 µM |
| COc1ccccc1C1C(C(=O)c2sc(C)nc2C)=C(O)C(=O)N1CCN1CCOCC1 (stereo not drawn) | 0.71 (inactive) | 3.81 µM |
| CCOc1ccccc1NC(=O)c1cccc(NC(=O)CC(c2ccccc2)c2ccccc2)c1 | 1.2 (inactive) | 6.45 µM |
| N=C(N)SCc1cccc2ccccc12 | 0.35 (inactive) | 1.9 µM |
| COc1ccc(Cn2c(O)c(C=Nc3ccc(OC)cc3)c3ccccc3c2=O)cc1 | 1.34 (inactive) | 7.24 µM |
| N#Cc1c(N)n(CCOC(=O)c2cccc(Br)c2)c2nc3ccccc3nc12 | 0.93 (inactive) | 5.04 µM |
| CCOC(=O)C1=C(C)Nc2ncnn2C1c1cccnc1 (stereo not drawn) | 0.83 (inactive) | 4.5 µM |
| O=C(Nc1nc(-c2cccs2)c(-c2cccs2)s1)C1(c2ccccc2)CC1 | 0.66 (inactive) | 3.58 µM |
| Cc1csc(C(C#N)C(=O)c2cc3ccccc3o2)n1 (stereo not drawn) | 1.19 (inactive) | 6.41 µM |
| CC(C)c1ccc(C(=O)CSc2ncn[nH]2)cc1 | 0.96 (inactive) | 5.17 µM |
| Cc1noc(/C=C/N(C)C)c1S(=O)(=O)N1CCCC(C(=O)NC2CCCCC2C)C1 (stereo not drawn) | 0.92 (inactive) | 4.98 µM |
| COc1ccc(C2CC(c3ccccc3)=NN2C(=O)COC(=O)c2cccnc2Cl)cc1 (stereo not drawn) | 0.63 (inactive) | 3.4 µM |
| COc1ccc(OCc2nc3ccc(S(=O)(=O)Nc4ccccc4Cl)cc3[nH]2)cc1 | 0.96 (inactive) | 5.16 µM |
| CCC(Sc1nccn1C)C(=O)Nc1nnc(C)s1 (stereo not drawn) | 1.01 (inactive) | 5.43 µM |
| C/C(=N/NC(=S)Nc1ccccc1)c1ccc2c(c1)OCO2 | 1.01 (inactive) | 5.46 µM |
| COc1ccccc1N1CCN(C(=O)COc2ccc(Cl)cc2)CC1 | 0.8 (inactive) | 4.32 µM |
| COC(=O)N/N=C/c1ccc(-c2cc(Cl)cc(Cl)c2)o1 | 1.06 (inactive) | 5.71 µM |
| O=C(c1ccc(COc2ccc(Cl)cc2)o1)N1N=C(C(F)F)CC1(O)C(F)F (stereo not drawn) | 1.44 (inactive) | 7.77 µM |

| SMILES | fold increase in Dox EC50 | EC50 |
| --- | --- | --- |
| O=C(NCc1ccc(Cl)cc1)C(=O)NCC1OCCN1C(=O)c1cccs1 (stereo not drawn) | 1.33 (inactive) | 7.17 µM |
| C/C(=N\NC(=O)c1ccc(Cn2cc([N+](=O)[O-])cn2)o1)c1cccc(NC(=O)c2cccnc2)c1 | 0.73 (inactive) | 3.94 µM |
| CC(=O)c1ccc(NC(=O)CN2C(=O)/C(=C/C(C)=C/c3ccccc3)SC2=S)cc1 | 0.62 (inactive) | 3.36 µM |
| COc1ccc(-c2nc(-c3cccc(C)c3)no2)cc1OC | 0.69 (inactive) | 3.73 µM |
| Cc1ccc(NC(=O)CSc2nnc(-c3cccs3)n2Cc2ccco2)cc1 | 0.78 (inactive) | 4.24 µM |
| CCCCCCC(=O)Nc1ccc(C(=O)N/N=C/c2cccnc2)cc1 | 0.13 (inactive) | 0.694 µM |
| O=C(NCCN1C(=O)S/C(=C/c2ccccc2)C1=O)C1CCCN1C(=O)c1cccs1 (stereo not drawn) | 0.61 (inactive) | 3.3 µM |
| Cc1onc(-c2ccccc2Cl)c1C(=O)Nc1nnc(-c2ccc(Br)cc2)s1 | 0.75 (inactive) | 4.04 µM |
| CC(CCc1ccccc1)NC(=O)c1nnc(Cc2ccc(Cl)cc2)o1 (stereo not drawn) | 1.13 (inactive) | 6.1 µM |
| Cc1[nH]c2ccccc2c1C(=O)C(=O)NCCC1=CCCCC1 | 0.98 (inactive) | 5.3 µM |
| CCOc1ccc(-c2nc(C#N)c(NCC(C)C)o2)cc1 | 1.19 (inactive) | 6.4 µM |
| CCOP(=O)(OCC)C(NC(=O)Nc1ccc(Cl)cc1)C(=O)N(CC)CC (stereo not drawn) | 1.33 (inactive) | 7.16 µM |
| CCn1c(CNC(=O)COc2ccc(C(C)C)cc2)nnc1SCC(=O)Nc1ccccc1C(C)C | 1.04 (inactive) | 5.63 µM |
| CN(C)S(=O)(=O)c1ccc(S(=O)(=O)N2CCN(CCC#N)CC2)cc1 | 0.71 (inactive) | 3.85 µM |
| CCOc1ccc(OCC)c(-c2c(=O)n(OCc3ccc(C(C)(C)C)cc3)c3ccccc3[n+]2[O-])c1 | 0.85 (inactive) | 4.6 µM |
| OCCN=C1CCCc2c1[nH]c1ccc(Br)cc21 | 0.84 (inactive) | 4.56 µM |
| Cc1ccc(/C=C2\SC(=S)N(CCCC(=O)Nc3nccs3)C2=O)cc1 | 0.3 (inactive) | 1.64 µM |
| COc1ccc(N2CCN(c3oc(COc4ccc(Cl)cc4)nc3C#N)CC2)cc1 | 1.64 | 8.88 µM |
| CC1=C(C(=O)OC(C)C)C(c2cccc(F)c2)N2C(=O)C(C)SC2=N1 (stereo not drawn) | 1.21 (inactive) | 6.53 µM |
| Cc1cc(C)cc(NC(=O)c2oc3ccccc3c2COc2ccccc2)c1 | 0.88 (inactive) | 4.78 µM |
| Cc1ccc2nc(Nc3nc(CSc4nc5ccccc5s4)cc(=O)[nH]3)nc(C)c2c1 | 1.08 (inactive) | 5.81 µM |
| Cn1nc(C(F)(F)F)c2cc(NC(=O)OCc3ccc(C(C)(C)C)cc3)sc21 | 0.74 (inactive) | 4.02 µM |
| CCNc1oc(-c2cccc3ccccc23)nc1C#N | 0.68 (inactive) | 3.68 µM |
| Cc1c(NC(=O)c2ccccc2NS(=O)(=O)c2ccc(Br)cc2)c(=O)n(-c2ccccc2)n1C | 0.65 (inactive) | 3.53 µM |
